Reference: paper PMC3875168 (Journal of medicinal chemistry, 2013)
Values belong to the molecule of their own block, whether it stands above or below them.

Tests used:
[1] = Solubility of the inhibitor; assay type: physicochemical; details: hydroxyl group at the benzylic position, compared with 12p
STEP = target: T1, STEP (Rattus norvegicus, UniProt P35234); assay: STEP inhibition in neuronal cultures, Western blotting of phospho-substrates; assay type: cell-based; details: rat cortical neurons, 0.1, 1 or 10 µM for 1 h
T1 sequence (P35234 53-369 limits assumed): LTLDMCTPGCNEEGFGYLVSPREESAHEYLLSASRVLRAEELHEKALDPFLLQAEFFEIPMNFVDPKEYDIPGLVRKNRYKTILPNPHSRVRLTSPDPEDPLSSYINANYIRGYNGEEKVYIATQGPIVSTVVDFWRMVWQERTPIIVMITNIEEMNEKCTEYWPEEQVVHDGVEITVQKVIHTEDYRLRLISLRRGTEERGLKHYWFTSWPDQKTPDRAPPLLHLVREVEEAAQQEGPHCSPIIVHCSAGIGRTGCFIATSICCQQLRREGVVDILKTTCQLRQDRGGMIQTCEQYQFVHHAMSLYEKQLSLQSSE

BBB PAMPA = assay type: in vitro ADME; details: PAMPA model system; data in SI
MKP5 = target: T2, MKP5 (Homo sapiens, UniProt Q9Y6W6); assay: Selectivity assay, DiFMUP substrate; assay type: biochemical; details: relative to STEP Ki
T2 sequence (Q9Y6W6 1-482): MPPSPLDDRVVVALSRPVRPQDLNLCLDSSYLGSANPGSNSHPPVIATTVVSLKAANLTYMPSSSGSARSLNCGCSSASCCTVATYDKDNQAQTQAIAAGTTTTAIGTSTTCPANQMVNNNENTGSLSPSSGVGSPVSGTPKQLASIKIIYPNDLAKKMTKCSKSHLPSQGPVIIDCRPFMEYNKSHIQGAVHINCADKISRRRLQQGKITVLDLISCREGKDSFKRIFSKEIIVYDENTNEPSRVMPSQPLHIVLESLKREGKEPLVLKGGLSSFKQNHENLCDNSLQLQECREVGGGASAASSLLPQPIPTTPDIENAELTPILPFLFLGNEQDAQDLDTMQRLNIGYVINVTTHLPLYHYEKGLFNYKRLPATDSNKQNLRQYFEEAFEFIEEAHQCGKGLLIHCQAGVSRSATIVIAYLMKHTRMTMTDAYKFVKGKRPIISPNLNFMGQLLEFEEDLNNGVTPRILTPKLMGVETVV

CD45 = target: T3, CD45 (Homo sapiens, UniProt P08575); assay: Selectivity assay, pNPP substrate; assay type: biochemical; details: relative to STEP Ki
T3 sequence (P08575 26-1306): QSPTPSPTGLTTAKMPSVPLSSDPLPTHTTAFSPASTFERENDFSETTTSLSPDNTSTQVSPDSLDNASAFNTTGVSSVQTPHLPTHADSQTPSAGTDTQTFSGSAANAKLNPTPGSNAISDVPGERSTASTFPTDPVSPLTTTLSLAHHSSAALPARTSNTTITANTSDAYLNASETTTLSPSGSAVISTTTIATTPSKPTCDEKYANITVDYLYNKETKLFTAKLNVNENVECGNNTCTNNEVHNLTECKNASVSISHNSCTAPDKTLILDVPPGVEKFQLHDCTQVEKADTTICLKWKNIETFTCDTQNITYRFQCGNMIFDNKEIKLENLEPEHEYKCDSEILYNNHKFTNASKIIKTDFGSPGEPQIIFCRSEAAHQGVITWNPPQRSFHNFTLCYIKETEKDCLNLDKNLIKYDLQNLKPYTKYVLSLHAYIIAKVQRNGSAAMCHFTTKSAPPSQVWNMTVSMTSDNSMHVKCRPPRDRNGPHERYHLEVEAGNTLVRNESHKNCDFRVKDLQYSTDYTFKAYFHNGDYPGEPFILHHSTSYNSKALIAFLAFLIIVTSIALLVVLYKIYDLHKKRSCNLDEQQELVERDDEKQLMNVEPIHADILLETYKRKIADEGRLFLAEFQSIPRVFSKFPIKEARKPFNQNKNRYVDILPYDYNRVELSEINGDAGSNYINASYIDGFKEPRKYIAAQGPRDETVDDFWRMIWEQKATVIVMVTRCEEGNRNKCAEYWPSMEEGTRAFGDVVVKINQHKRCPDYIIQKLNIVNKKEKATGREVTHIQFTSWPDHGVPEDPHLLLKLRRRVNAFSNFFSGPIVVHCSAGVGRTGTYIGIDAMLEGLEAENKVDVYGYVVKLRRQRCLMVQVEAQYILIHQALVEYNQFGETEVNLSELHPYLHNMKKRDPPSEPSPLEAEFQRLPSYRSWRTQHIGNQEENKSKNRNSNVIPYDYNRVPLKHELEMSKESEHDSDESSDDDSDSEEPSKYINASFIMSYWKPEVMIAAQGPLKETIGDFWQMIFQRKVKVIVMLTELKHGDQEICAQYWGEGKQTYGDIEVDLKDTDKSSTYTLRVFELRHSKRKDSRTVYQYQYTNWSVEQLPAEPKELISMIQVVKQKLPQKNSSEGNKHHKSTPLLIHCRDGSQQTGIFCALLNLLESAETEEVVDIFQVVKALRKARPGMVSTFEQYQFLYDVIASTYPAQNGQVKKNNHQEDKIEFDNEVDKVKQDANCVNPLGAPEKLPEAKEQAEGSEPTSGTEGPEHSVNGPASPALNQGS

LAR = LAR (Homo sapiens, UniProt P10586); assay: Selectivity assay, pNPP substrate; assay type: biochemical; details: relative to STEP Ki
LAR, sequence (P10586 30-1907): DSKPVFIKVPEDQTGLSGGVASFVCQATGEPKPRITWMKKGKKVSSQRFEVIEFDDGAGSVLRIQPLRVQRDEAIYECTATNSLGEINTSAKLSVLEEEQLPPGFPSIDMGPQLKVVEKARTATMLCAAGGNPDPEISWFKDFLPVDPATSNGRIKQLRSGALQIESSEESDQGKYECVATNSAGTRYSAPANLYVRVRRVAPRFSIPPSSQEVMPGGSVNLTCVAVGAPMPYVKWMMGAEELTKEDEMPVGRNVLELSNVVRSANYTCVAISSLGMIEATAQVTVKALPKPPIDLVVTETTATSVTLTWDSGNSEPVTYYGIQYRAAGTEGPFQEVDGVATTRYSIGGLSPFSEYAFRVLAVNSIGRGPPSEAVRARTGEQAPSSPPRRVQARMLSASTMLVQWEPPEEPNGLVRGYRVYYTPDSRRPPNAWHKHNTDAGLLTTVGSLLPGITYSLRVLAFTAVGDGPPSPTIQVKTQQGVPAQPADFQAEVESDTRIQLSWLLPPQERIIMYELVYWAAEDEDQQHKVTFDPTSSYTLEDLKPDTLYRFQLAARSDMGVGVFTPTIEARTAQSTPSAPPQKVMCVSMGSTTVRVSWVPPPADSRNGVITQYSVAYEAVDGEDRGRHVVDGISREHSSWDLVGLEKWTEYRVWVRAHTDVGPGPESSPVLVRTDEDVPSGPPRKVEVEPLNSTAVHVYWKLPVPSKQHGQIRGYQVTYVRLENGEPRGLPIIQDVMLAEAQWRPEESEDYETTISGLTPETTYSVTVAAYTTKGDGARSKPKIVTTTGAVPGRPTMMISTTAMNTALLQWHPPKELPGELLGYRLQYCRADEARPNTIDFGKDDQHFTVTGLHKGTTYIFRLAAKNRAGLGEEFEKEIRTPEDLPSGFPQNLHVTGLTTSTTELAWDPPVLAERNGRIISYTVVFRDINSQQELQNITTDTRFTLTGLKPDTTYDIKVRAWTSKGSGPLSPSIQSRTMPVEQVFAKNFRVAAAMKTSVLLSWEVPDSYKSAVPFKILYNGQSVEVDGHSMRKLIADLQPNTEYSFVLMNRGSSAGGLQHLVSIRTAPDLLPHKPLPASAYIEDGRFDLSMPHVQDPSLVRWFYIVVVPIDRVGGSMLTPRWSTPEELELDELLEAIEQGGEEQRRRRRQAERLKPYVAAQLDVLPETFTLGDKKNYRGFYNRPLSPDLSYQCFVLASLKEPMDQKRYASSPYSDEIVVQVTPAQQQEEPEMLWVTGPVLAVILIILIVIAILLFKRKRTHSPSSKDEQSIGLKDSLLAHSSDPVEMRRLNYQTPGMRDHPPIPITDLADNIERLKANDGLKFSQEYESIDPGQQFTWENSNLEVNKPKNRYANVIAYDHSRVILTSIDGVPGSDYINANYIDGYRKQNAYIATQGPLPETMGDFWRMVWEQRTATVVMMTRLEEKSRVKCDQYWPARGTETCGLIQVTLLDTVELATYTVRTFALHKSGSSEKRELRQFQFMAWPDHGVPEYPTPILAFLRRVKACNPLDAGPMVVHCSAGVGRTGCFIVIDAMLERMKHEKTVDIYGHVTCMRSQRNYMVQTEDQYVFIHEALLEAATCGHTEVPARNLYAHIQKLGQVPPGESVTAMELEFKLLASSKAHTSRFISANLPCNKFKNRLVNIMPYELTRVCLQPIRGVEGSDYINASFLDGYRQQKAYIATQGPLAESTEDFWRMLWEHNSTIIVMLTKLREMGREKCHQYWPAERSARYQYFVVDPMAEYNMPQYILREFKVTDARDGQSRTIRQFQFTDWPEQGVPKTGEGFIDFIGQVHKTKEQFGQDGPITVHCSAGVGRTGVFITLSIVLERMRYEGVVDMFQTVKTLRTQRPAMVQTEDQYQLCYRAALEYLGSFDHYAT

solubility of the inhibitor [1]: increased the solubility
Structure (SMILES): O=P(O)(O)C(F)(F)c1ccc(-c2cccc(C(O)c3ccc(Cl)c(Cl)c3)c2)cc1 (stereo not shown) [12q, ((3'-((3,4-Dichlorophenyl)(hydroxy)methyl)-[1,1'-biphenyl]-4-yl)difluoromethyl)phosphonic Acid]

Structure (SMILES): O=P(O)(O)[C@H](O)c1ccc(-c2cccc([C@@H](O)c3ccc(Cl)c(Cl)c3)c2)cc1 [12s, ((S)-(3'-((R)-(3,4-dichlorophenyl)(hydroxy)methyl)-[1,1'-biphenyl]-4-yl)(hydroxy)methyl)phosphonic Acid]
phosphorylation levels of STEP substrates GluN2B, Pyk2 and ERK1/2 (STEP): Clear increases in the phosphorylation levels | ability to passively permeate the blood-brain barrier (BBB PAMPA): did not possess the ability to passively cross the BBB

Structure (SMILES): O=P(O)(O)[C@H](O)c1ccc(-c2cccc([C@H](O)c3ccc(Cl)c(Cl)c3)c2)cc1 [12t, ((S)-(3'-((S)-(3,4-dichlorophenyl)(hydroxy)methyl)-[1,1'-biphenyl]-4-yl)(hydroxy)methyl)phosphonic Acid]
phosphorylation levels of STEP substrates GluN2B, Pyk2 and ERK1/2 (STEP): more modest effects | selectivity MKP5 (MKP5): >65

selectivity CD45 (CD45): >25 | selectivity LAR (LAR): >45
Structure (SMILES): O=P(O)(O)C(F)(F)c1cccc(-c2cccc(C3CCCCC3)c2O)c1 [11m, ((3'-Cyclohexyl-2'-hydroxy-[1,1'-biphenyl]-3-yl)difluoromethyl)phosphonic Acid]
